pIC50: −log10 of the molar value.
Biological target: Cav2.1 calcium channel α1 subunit (P/Q-type hCav2.1) (Homo sapiens, UniProt O00555)
Test: whole-cell patch clamp of ICa in transfected HEK293-F cells
Type: cell-based

Chain of Cav2.1 calcium channel α1 subunit (P/Q-type hCav2.1) (O00555 whole entry): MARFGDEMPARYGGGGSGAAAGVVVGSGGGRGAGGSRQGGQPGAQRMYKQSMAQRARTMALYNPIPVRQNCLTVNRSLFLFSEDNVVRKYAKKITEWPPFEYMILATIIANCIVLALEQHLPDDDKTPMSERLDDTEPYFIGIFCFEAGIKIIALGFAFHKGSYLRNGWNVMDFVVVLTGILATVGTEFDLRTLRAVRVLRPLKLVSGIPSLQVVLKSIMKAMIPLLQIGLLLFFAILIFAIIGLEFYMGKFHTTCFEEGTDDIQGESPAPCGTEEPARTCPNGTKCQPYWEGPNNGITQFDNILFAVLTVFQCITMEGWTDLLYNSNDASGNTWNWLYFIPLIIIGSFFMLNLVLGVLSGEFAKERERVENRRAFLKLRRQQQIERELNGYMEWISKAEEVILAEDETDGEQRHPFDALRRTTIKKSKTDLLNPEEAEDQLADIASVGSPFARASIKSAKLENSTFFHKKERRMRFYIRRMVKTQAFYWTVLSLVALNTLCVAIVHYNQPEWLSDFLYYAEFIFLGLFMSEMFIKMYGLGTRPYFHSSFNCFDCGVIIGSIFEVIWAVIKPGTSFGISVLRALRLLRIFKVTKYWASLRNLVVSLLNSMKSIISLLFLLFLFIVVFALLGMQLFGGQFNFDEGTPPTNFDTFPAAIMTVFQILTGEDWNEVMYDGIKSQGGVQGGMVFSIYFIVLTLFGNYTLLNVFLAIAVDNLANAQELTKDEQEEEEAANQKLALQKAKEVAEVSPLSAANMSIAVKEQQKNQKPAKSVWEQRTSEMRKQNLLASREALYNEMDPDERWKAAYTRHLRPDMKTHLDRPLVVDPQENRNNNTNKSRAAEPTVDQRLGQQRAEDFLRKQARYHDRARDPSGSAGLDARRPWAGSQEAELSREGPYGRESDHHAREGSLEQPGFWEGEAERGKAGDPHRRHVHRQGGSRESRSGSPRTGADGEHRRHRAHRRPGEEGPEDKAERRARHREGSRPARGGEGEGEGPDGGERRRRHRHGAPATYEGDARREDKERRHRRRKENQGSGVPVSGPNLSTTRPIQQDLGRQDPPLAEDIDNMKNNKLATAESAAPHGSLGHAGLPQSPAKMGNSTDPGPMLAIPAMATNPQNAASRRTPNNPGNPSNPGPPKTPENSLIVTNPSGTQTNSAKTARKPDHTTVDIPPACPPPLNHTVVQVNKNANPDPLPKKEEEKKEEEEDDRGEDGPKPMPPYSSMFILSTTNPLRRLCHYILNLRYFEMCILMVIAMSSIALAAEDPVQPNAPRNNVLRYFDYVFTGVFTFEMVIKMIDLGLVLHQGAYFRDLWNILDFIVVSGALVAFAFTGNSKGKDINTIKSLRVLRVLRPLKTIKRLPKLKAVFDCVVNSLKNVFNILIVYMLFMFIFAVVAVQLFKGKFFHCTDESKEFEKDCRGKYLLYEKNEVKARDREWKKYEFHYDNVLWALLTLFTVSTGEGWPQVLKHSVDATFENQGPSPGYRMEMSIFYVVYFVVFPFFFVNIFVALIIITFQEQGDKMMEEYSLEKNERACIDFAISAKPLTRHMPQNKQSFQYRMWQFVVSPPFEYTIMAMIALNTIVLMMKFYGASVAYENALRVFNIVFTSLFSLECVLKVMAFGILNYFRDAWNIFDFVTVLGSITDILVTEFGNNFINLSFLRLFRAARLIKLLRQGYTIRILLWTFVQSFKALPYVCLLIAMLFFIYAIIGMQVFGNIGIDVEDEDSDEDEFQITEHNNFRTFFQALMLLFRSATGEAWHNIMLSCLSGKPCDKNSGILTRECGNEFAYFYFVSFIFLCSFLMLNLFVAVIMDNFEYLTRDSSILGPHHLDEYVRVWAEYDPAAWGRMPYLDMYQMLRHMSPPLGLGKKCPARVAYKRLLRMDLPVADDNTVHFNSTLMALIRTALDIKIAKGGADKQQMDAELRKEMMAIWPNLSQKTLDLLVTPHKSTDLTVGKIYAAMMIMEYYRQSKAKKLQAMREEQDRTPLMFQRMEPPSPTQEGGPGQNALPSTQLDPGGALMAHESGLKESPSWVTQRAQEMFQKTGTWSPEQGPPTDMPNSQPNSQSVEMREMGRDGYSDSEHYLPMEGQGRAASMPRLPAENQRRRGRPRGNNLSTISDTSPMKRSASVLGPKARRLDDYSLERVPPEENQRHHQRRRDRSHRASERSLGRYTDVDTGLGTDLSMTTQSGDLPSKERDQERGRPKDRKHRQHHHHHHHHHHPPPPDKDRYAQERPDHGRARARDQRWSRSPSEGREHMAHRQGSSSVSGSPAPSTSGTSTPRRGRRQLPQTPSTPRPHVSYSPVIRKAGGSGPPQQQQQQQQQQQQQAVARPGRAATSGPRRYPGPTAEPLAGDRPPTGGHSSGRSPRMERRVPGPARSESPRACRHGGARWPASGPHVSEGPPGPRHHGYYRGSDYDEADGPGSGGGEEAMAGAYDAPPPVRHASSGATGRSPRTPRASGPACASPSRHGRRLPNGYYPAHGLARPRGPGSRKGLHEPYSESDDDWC

`N.N.N.N.N.N.N.N.[Cl][Ru+3].[NH]=[Ru][Cl]` [Ru265] gave a pIC50 of ~5.60.
